Reference: US9340549B2, “Oxazolidinone compounds and derivatives thereof” (priority 2012, dated 2016)
Where two headings read alike, the source gives them in different places.

Target: 6×HIS-tankyrase 1 (1091-1325) (Homo sapiens (Human), UniProt O95271)
Assay: biochemical
Format: biochemical
Settings: 400 nM NAD, 60 minutes at room temperature, read-out: TNKS1 IP IC50

Chain of 6×HIS-tankyrase 1 (1091-1325) (O95271 1091-1325): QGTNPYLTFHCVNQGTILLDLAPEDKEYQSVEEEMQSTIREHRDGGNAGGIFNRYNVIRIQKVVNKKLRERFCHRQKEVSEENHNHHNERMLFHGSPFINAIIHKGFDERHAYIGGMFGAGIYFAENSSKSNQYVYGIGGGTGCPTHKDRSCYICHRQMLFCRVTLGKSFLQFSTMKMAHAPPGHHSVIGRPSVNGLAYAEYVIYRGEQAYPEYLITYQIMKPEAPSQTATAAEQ

| SMILES | IC50 ([…] enzyme) [nM] | IC50 (0.25 nM enzyme) [nM] |
| --- | --- | --- |
| CC1(C)OC(=O)N([C@H]2CC[C@@H](c3cnc4cc[nH]c4c3)CC2)[C@H]1c1ccccc1 [Example 172, (S)-3-((1s,4R)-4-(1H-pyrrolo[3,2-b]pyridin-6-yl)cyclohexyl)-5,5-dimethyl-4-phenyloxazolidin-2-one] | 1250 | – |
| CC1(C)OC(=O)N([C@H]2CC[C@@H](c3cnc4[nH]ccc4c3)CC2)[C@H]1c1ccccc1 [Example 136, (S)-3-((1s,4r)-4-(1H-pyrrolo[2,3-b]pyridin-5-yl)cyclohexyl)-5,5-dimethyl-4-phenyloxazolidin-2-one] | – | 5.17 |
| Cn1cc(C(=O)N[C@H]2CC[C@H](N3C(=O)OC(C)(C)[C@@H]3c3ccccc3)CC2)c2ccccc21 [Example 143, N-((1R,4r)-4-((R)-5,5-dimethyl-2-oxo-4-phenyloxazolidin-3-yl)cyclohexyl)-1-methyl-1H-indole-3-carboxamide] | 225 | – |
| CC1(C)OC(=O)N([C@H]2CC[C@H](NC(=O)c3csc(Br)n3)CC2)[C@H]1c1ccccc1 [Example 182, 2-bromo-N-((1S,4r)-4-((S)-5,5-dimethyl-2-oxo-4-phenyloxazolidin-3-yl)cyclohexyl)thiazole-4-carboxamide] | 32.1 | – |
| CC(C)c1cc(C(=O)N[C@H]2CC[C@H](N3C(=O)OC(C)(C)[C@@H]3c3ccccc3)CC2)[nH]n1 [Example 154, N-((1S,4r)-4-((S)-5,5-dimethyl-2-oxo-4-phenyloxazolidin-3-yl)cyclohexyl)-3-isopropyl-1H-pyrazole-5-carboxamide] | 2320 | – |
| CC1(C)OC(=O)N([C@H]2CC[C@H](NC(=O)c3cnn(-c4ccccc4)c3)CC2)[C@H]1c1ccccc1 [Example 161, N-((1S,4r)-4-((S)-5,5-dimethyl-2-oxo-4-phenyloxazolidin-3-yl)cyclohexyl)-1-phenyl-1H-pyrazole-4-carboxamide] | 350 | – |
| CC1(C)OC(=O)N([C@H]2CC[C@H](NC(=O)c3ccc4nccn4c3)CC2)[C@H]1c1ccccc1 [Example 159, N-((1S,4r)-4-((S)-5,5-dimethyl-2-oxo-4-phenyloxazolidin-3-yl)cyclohexyl)imidazo[1,2-a]pyridine-6-carboxamide] | 1560 | – |
| CC1(C)OC(=O)N(C2CC(c3nnc(-c4ccccc4)o3)C2)[C@@H]1c1ccccc1 (mixture of isomers) [Example 175, Mixture of (R)-5,5-dimethyl-4-phenyl-3-((1r,3R)-3-(5-phenyl-1,3,4-oxadiazol-2-yl)cyclobutyl)oxazolidin-2-one compound and (S)-5,5-dimethyl-4-phenyl-3-((1r,3S)-3-(5-phenyl-1,3,4-oxadiazol-2-yl)cyclobutyl)oxazolidin-2-one (1:1)] | 1470 | – |
| CC1(C)OC(=O)N([C@H]2CC[C@H](NC(=O)c3ccnc4[nH]ccc34)CC2)[C@H]1c1ccccc1 [Example 152, N-((1S,4r)-4-((S)-5,5-dimethyl-2-oxo-4-phenyloxazolidin-3-yl)cyclohexyl)-1H-pyrrolo[2,3-b]pyridine-4-carboxamide] | 228 | – |
| CC1(C)OC(=O)N(C2CC=C(c3cc4ccncc4[nH]c3=O)CC2)[C@H]1c1ccccc1 (stereo partly drawn) [Example 87, (4S)-5,5-dimethyl-3-(4-(2-oxo-1,2-dihydro-1,7-naphthyridin-3-yl)cyclohex-3-en-1-yl)-4-phenyloxazolidin-2-one] | 6.91 | – |
| CC1(C)OC(=O)N(c2ccc(C(=O)Nc3cnccc3O)cc2)[C@H]1c1ccccc1 [Example 21, (S)-4-(5,5-dimethyl-2-oxo-4-phenyloxazolidin-3-yl)-N-(4-hydroxypyridin-3-yl)benzamide] | 1340 | – |
| CC1(C)OC(=O)N([C@H]2CC[C@H](NC(=O)c3ccncn3)CC2)[C@H]1c1ccccc1 [Example 165, N-((1S,4r)-4-((S)-5,5-dimethyl-2-oxo-4-phenyloxazolidin-3-yl)cyclohexyl)pyrimidine-4-carboxamide] | 260 | – |
| CC1(C)OC(=O)N([C@H]2CC[C@@H](c3cc4ccncc4[nH]c3=O)CC2)[C@H]1c1ccccc1 [Example 138, (S)-5,5-dimethyl-3-((1s,4r)-4-(2-oxo-1,2-dihydro-1,7-naphthyridin-3-yl)cyclohexyl)-4-phenyloxazolidin-2-one] | – | 1250 |
| CC1(C)OC(=O)N([C@H]2CC[C@H](NC(=O)c3nc4ccccc4[nH]3)CC2)[C@H]1c1ccccc1 [Example 157, N-((1S,4r)-4-((S)-5,5-dimethyl-2-oxo-4-phenyloxazolidin-3-yl)cyclohexyl)-1H-benzo[d]imidazole-2-carboxamide] | 76.8 | – |
| CC1(C)OC(=O)N([C@H]2CC[C@H](n3ncc4cc(C#N)ccc43)CC2)[C@@H]1c1ccccc1 [Example 180, 1-((1R,4r)-4-((R)-5,5-dimethyl-2-oxo-4-phenyloxazolidin-3-yl)cyclohexyl)-1H-indazole-5-carbonitrile] | 915 | – |
| CC1(C)OC(=O)N([C@H]2CC[C@H](n3ncc4cc(C#N)ccc43)CC2)[C@H]1c1ccccc1 [Example 181, 1-((1S,4r)-4-((S)-5,5-dimethyl-2-oxo-4-phenyloxazolidin-3-yl)cyclohexyl)-1H-indazole-5-carbonitrile] | 714 | – |

| SMILES | IC50 ([…] enzyme) [nM] | IC50 (0.25 nM enzyme) [nM] |
| --- | --- | --- |
| Cc1nc(C(=O)N[C@H]2CC[C@H](N3C(=O)OC(C)(C)[C@@H]3c3ccccc3)CC2)cs1 [Example 166, N-((1S,4r)-4-((S)-5,5-dimethyl-2-oxo-4-phenyloxazolidin-3-yl)cyclohexyl)-2-methylthiazole-4-carboxamide] | > 46300 | – |
| CC1(C)OC(=O)N([C@H]2CC[C@H](NC(=O)c3cscn3)CC2)[C@H]1c1ccccc1 [Example 168, N-((1S,4r)-4-((S)-5,5-dimethyl-2-oxo-4-phenyloxazolidin-3-yl)cyclohexyl)thiazole-4-carboxamide] | > 46300 | – |
| CC1(C)OC(=O)N([C@H]2CC[C@H](NC(=O)c3cccc4[nH]ncc34)CC2)[C@H]1c1ccccc1 [Example 153, N-((1S,4r)-4-((S)-5,5-dimethyl-2-oxo-4-phenyloxazolidin-3-yl)cyclohexyl)-1H-indazole-4-carboxamide] | 848 | – |
| CC1(C)OC(=O)N([C@H]2CC[C@H](NC(=O)c3nccs3)CC2)[C@H]1c1ccccc1 [Example 160, N-((1S,4r)-4-((S)-5,5-dimethyl-2-oxo-4-phenyloxazolidin-3-yl)cyclohexyl)thiazole-2-carboxamide] | 1460 | – |
| CC1(C)OC(=O)N([C@H]2CC[C@H](NC(=O)c3cn4ccccc4n3)CC2)[C@@H]1c1ccccc1 [Example 162, N-((1R,4r)-4-((R)-5,5-dimethyl-2-oxo-4-phenyloxazolidin-3-yl)cyclohexyl)imidazo[1,2-a]pyridine-2-carboxamide] | 101 | – |
| CC1(C)OC(=O)N([C@H]2CC[C@H](c3cnc4cc[nH]c4c3)CC2)[C@H]1c1ccccc1 [Example 171, (S)-3-((1r,4S)-4-(1H-pyrrolo[3,2-b]pyridin-6-yl)cyclohexyl)-5,5-dimethyl-4-phenyloxazolidin-2-one] | 19 | – |
| CC1(C)OC(=O)N([C@H]2CC[C@H](NC(=O)c3cc4ccncc4[nH]3)CC2)[C@H]1c1ccccc1 [Example 149, N-((1S,4r)-4-((S)-5,5-dimethyl-2-oxo-4-phenyloxazolidin-3-yl)cyclohexyl)-1H-pyrrolo[2,3-c]pyridine-2-carboxamide] | 34 | – |
| CC1(C)OC(=O)N([C@H]2CC[C@H](c3cccnc3)CC2)[C@H]1c1ccccc1 [Example 133, (S)-5,5-dimethyl-4-phenyl-3-((1r,4s)-4-(pyridin-3-yl)cyclohexyl)oxazolidin-2-one] | – | 1380 |
| CC1(C)OC(=O)N([C@H]2CC[C@H](c3cc4ccncc4[nH]c3=O)CC2)[C@H]1c1ccccc1 [Example 139, (S)-5,5-dimethyl-3-((1r,4s)-4-(2-oxo-1,2-dihydro-1,7-naphthyridin-3-yl)cyclohexyl)-4-phenyloxazolidin-2-one] | – | 11.5 |
| Cn1cncc1C(=O)N[C@H]1CC[C@H](N2C(=O)OC(C)(C)[C@@H]2c2ccccc2)CC1 [Example 151, N-((1S,4r)-4-((S)-5,5-dimethyl-2-oxo-4-phenyloxazolidin-3-yl)cyclohexyl)-1-methyl-1H-imidazole-5-carboxamide] | 16600 | – |
| Cn1cc2cccc(C(=O)N[C@H]3CC[C@H](N4C(=O)OC(C)(C)[C@@H]4c4ccccc4)CC3)c2n1 [Example 145, N-((1S,4r)-4-((S)-5,5-dimethyl-2-oxo-4-phenyloxazolidin-3-yl)cyclohexyl)-2-methyl-2H-indazole-7-carboxamide] | 13.7 | – |
| C[C@@H]1OC(=O)N([C@H]2CC[C@H](n3c(=O)[nH]c4cc(C#N)ccc43)CC2)C1c1ccccc1 (stereo partly drawn) [Example 179, 1-((1R,4r)-4-((4R,5S)-5-methyl-2-oxo-4-phenyloxazolidin-3-yl)cyclohexyl)-2-oxo-2,3-dihydro-1H-benzo[d]imidazole-5-carbonitrile] | 129 | – |
| CC1(C)OC(=O)N([C@H]2CC[C@H](NC(=O)c3csc(-c4ncccn4)n3)CC2)[C@H]1c1ccccc1 [Example 183, N-((1S,4r)-4-((S)-5,5-dimethyl-2-oxo-4-phenyloxazolidin-3-yl)cyclohexyl)-2-(pyrimidin-2-yl)thiazole-4-carboxamide] | 3.94 | – |
| CC1(C)OC(=O)N([C@H]2CC[C@H](NC(=O)c3coc(-c4ccccc4)n3)CC2)[C@H]1c1ccccc1 [Example 164, N-((1S,4r)-4-((S)-5,5-dimethyl-2-oxo-4-phenyloxazolidin-3-yl)cyclohexyl)-2-phenyloxazole-4-carboxamide] | 51.9 | – |
| Cn1cc2c(C(=O)N[C@H]3CC[C@H](N4C(=O)OC(C)(C)[C@H]4c4ccccc4)CC3)cccc2n1 [Example 144, N-((1R,4r)-4-((R)-5,5-dimethyl-2-oxo-4-phenyloxazolidin-3-yl)cyclohexyl)-2-methyl-2H-indazole-4-carboxamide] | 222 | – |
| CC1(C)OC(=O)N([C@H]2CC[C@H](NC(=O)c3ccc[nH]3)CC2)[C@H]1c1ccccc1 [Example 158, N-((1S,4r)-4-((S)-5,5-dimethyl-2-oxo-4-phenyloxazolidin-3-yl)cyclohexyl)-1H-pyrrole-2-carboxamide] | 142 | – |
